SMILES strings stand for the structures.

Data set [1] deals with RAW264.7. As to the kind of experiment: Effect on LPS-induced iNOS expression in mouse RAW264.7 cells at 10 uM after 18 hrs by Western blot method relative to LPS. It counts as functional.
The test system of data set [2] is RAW264.7. The experiment in a line: Antiinflammatory activity in mouse RAW264.7 cells assessed as inhibition of LPS-induced nitric oxide production at 1 to 10 uM after 18 hrs by Griess assay. It counts as functional, cell-based.
A short description of data set [3]: Cytotoxicity against mouse RAW264.7 cells assessed as cell proliferation rate at 100 uM after 24 hrs by MTS assay relative to control. It counts as toxicity. The following applies: read-out: Activity. A general note: Formazan colour is commonly taken as a measure of viable cells.
Data set [4] is described as follows: Antiinflammatory activity in mouse RAW264.7 cells assessed as inhibition of LPS-induced nitric oxide production at 50 to 100 uM after 18 hrs by Griess assay relative to control. It counts as functional. (Griess reagent forms a coloured azo dye with nitrite.)
A short description of data set [5]: Cytotoxicity against mouse RAW264.7 cells assessed as cell proliferation rate at 50 uM after 24 hrs by MTS assay relative to control. The following applies: read-out: Activity. It counts as toxicity.
Data set [6] in a line: Cytotoxicity against mouse RAW264.7 cells assessed as cell proliferation rate at 10 uM after 24 hrs by MTS assay relative to control. It counts as toxicity. The conditions noted are these: read-out: Activity.
Data set [7] can be described thus: Antiinflammatory activity in mouse RAW264.7 cells assessed as inhibition of LPS-induced nitric oxide production at 1 uM after 18 hrs by Griess assay relative to control. It counts as functional. The conditions noted are these: RAW264.7, 18 h.
Data set [8] is described as follows: Antiinflammatory activity in mouse RAW264.7 cells assessed as inhibition of LPS-induced nitric oxide production at 10 uM after 18 hrs by Griess assay relative to control. It counts as functional. The conditions noted are these: RAW264.7, 18 h.
The nature of data set [9]: Cytotoxicity against mouse RAW264.7 cells assessed as decrease in cell proliferation rate after 24 hrs by MTS assay. It counts as toxicity.
A short description of data set [10]: Cytotoxicity against mouse RAW264.7 cells assessed as cell proliferation rate at 1 uM after 24 hrs by MTS assay relative to control. The following applies: read-out: Activity. It counts as toxicity.

Regarding `COc1ccc(CCc2ccc(O)c(O)c2OC)cc1OC`, in the data set with RAW264.7 [1], the “fold change (FC)” value was found to be 0.65. The inhibition entry in the data set with RAW264.7 [2] is “Dose-dependent effect”. In addition, the viability at 24 h, 100 µM in data set [3] was found to be 81.9%. Moreover, the “inhibition (INH)” value in data set [4] is reported as more than 80%. Besides, the viability at 24 h, 50 µM in data set [5] amounted to 94.8%. Besides, the viability at 24 h, 10 µM in data set [6] amounted to 99.9%. Moreover, in data set [7], the inhibition at 1 µM came to 24.3%. The inhibition at 10 µM in [8] was 75.5%. Also, the IC50 at 24 h in data set [9] came to 2.98 µM. For the same compound, the viability at 24 h, 1 µM in data set [10] stood at 106%.
In the case of `COc1ccc(CCCc2ccc(O)c(O)c2O)cc1OC`, the “fold change (FC)” value in the data set with RAW264.7 [1] was determined as 0.71. In [3], the viability at 24 h, 100 µM was 73.2%. Besides, the “inhibition (INH)” value in data set [4] is given as more than 80%. The viability at 24 h, 50 µM in data set [5] came out at 86.4%. For the same compound, the viability at 24 h, 10 µM in data set [6] came to 130%. In addition, in data set [7], the inhibition at 1 µM was determined as 29.6%. The inhibition at 10 µM in data set [8] was determined as 28.6%. For the same compound, the IC50 at 24 h in data set [9] was 10.7 µM. In [10], the viability at 24 h, 1 µM was determined as 110%.
In the case of `COc1cc(CCCc2cc(OC)c(O)c(OC)c2)ccc1O`, in the data set with RAW264.7 [1], the “fold change (FC)” value is given as 0.81. Also, the viability at 24 h, 100 µM in [3] came to 82%. The “inhibition (INH)” value in [4] is reported as more than 80%. Also, the viability at 24 h, 50 µM in data set [5] came out at 88.7%. Further, the viability at 24 h, 10 µM in [6] was determined as 98.7%. For the same compound, in data set [7], the inhibition at 1 µM was determined as 27.2%. Moreover, the inhibition at 10 µM in [8] was 21.8%. The half-maximal inhibitory concentration (IC50) at 24 h in data set [9] was found to be 16.4 µM. The viability at 24 h, 1 µM in data set [10] came out at 98.4%.
Consider `COc1cc(CCc2cc(OC)c(O)c(OC)c2)ccc1O` [MOSCATILIN], for which the “fold change (FC)” value in the data set on RAW264.7 [1] worked out at 0.93. Moreover, the inhibition entry with RAW264.7 [2] is “Dose-dependent effect”. In data set [3], the viability at 24 h, 100 µM was found to be 59.6%. For the same compound, the “inhibition (INH)” value in data set [4] is more than 80%. The viability at 24 h, 50 µM in data set [5] is 47%. In addition, the viability at 24 h, 10 µM in data set [6] worked out at 52.9%. For the same compound, the inhibition at 1 µM in data set [7] stood at 7.4%. Besides, the inhibition at 10 µM in data set [8] was found to be 78.4%. For the same compound, the 50% inhibitory concentration (IC50) at 24 h in data set [9] turned out to be 4.4 µM. Besides, the viability at 24 h, 1 µM in data set [10] came out at 143%.
`Oc1cc(O)cc(CCc2ccc3c(c2)OCO3)c1`: in the data set with RAW264.7 [1], the “fold change (FC)” value was 0.93. The inhibition entry in the data set with RAW264.7 [2] was “Dose-dependent effect”. Besides, the viability at 24 h, 100 µM in data set [3] came out at 78.9%. The “inhibition (INH)” value in data set [4] is given as more than 80%. The viability at 24 h, 50 µM in [5] turned out to be 82.7%. In data set [6], the viability at 24 h, 10 µM is 90.8%. For the same compound, the inhibition at 1 µM in data set [7] worked out at 17%. For the same compound, in data set [8], the inhibition at 10 µM came out at 28.3%. In addition, the concentration for half-maximal inhibition (IC50) at 24 h in data set [9] worked out at 14.5 µM. The viability at 24 h, 1 µM in [10] was 96.8%.
With `CNC(=N)NCCC[C@H](N)C(=O)O` [TILARGININE], the “fold change (FC)” value in the data set with RAW264.7 [1] is listed as 0.92 - 1.02. In addition, the viability at 24 h, 100 µM in data set [3] is 97.2%. Besides, the viability at 24 h, 50 µM in data set [5] stood at 113%. Besides, the viability at 24 h, 10 µM in [6] turned out to be 100%. For the same compound, in data set [7], the inhibition at 1 µM turned out to be 15%. Moreover, the inhibition at 10 µM in data set [8] was found to be 90.1%. The IC50 at 24 h in data set [9] is 2.73 µM. Moreover, the viability at 24 h, 1 µM in [10] was 100%.
For the compound `Oc1cc(O)cc(CCCc2ccc3c(c2)OCO3)c1`, the “fold change (FC)” value with RAW264.7 [1] amounted to 0.74. In addition, in the data set with RAW264.7 [2], the inhibition entry was “Dose-dependent effect”. Moreover, the viability at 24 h, 100 µM in data set [3] worked out at 70.4%. In addition, the “inhibition (INH)” value in data set [4] is more than 80%. For the same compound, the viability at 24 h, 50 µM in [5] is 86.7%. Further, the viability at 24 h, 10 µM in [6] was found to be 102%. Further, the inhibition at 1 µM in data set [7] is 40.8%. In addition, the inhibition at 10 µM in data set [8] was found to be 53.6%. Moreover, the IC50 at 24 h in data set [9] came out at 1.3 µM. In addition, the viability at 24 h, 1 µM in data set [10] stood at 116%.
With `COc1cc(CCCc2cc(OC)c(OC)cc2O)ccc1O`, the “fold change (FC)” value in the data set with RAW264.7 [1] was 0.73. Further, in the data set on RAW264.7 [2], the inhibition entry was “Dose-dependent effect”. For the same compound, the viability at 24 h, 100 µM in [3] stood at 80.9%. For the same compound, the “inhibition (INH)” value in data set [4] was more than 80%. In data set [5], the viability at 24 h, 50 µM stood at 88.4%. In data set [6], the viability at 24 h, 10 µM came to 113%. Besides, the inhibition at 1 µM in [7] worked out at 38.2%. Also, in data set [8], the inhibition at 10 µM was 56.5%. Moreover, the IC50 at 24 h in data set [9] was found to be 4.46 µM. In addition, in data set [10], the viability at 24 h, 1 µM was determined as 135%.
For `COc1ccc(CCc2ccc(O)c(O)c2O)cc1OC`, the “fold change (FC)” value in the data set with RAW264.7 [1] was 0.92. In addition, in the data set on RAW264.7 [2], the inhibition result was “Dose-dependent effect”. Further, in [3], the viability at 24 h, 100 µM is 133%. For the same compound, the “inhibition (INH)” value in data set [4] is listed as more than 80%. The viability at 24 h, 50 µM in data set [5] turned out to be 128%. The viability at 24 h, 10 µM in [6] was found to be 114%. The inhibition at 1 µM in data set [7] came out at 42.7%. Also, the inhibition at 10 µM in data set [8] was 47%. The 50% inhibitory concentration (IC50) at 24 h in [9] amounted to 6.02 µM. Also, the viability at 24 h, 1 µM in [10] is 114%.
`COc1ccc(CCCc2ccc(O)c(O)c2OC)cc1OC`: the “fold change (FC)” value in the data set on RAW264.7 [1] is recorded as 0.39. Besides, the inhibition result in the data set on RAW264.7 [2] is “Dose-dependent effect”. For the same compound, the viability at 24 h, 100 µM in data set [3] was 61.9%. Besides, the “inhibition (INH)” value in data set [4] is on record as more than 80%. Moreover, in [5], the viability at 24 h, 50 µM amounted to 86.3%. The viability at 24 h, 10 µM in [6] came out at 103%. Further, the inhibition at 1 µM in [7] is 36.9%. In addition, in [8], the inhibition at 10 µM was 100%. Further, the IC50 at 24 h in data set [9] stood at 1.84 µM. In addition, in data set [10], the viability at 24 h, 1 µM amounted to 118%.
For `COc1cc(CCc2cc(OC)c(OC)cc2O)ccc1O`, the “fold change (FC)” value in the data set on RAW264.7 [1] is listed as 1.12. Besides, the viability at 24 h, 100 µM in data set [3] came to 133%. Besides, the “inhibition (INH)” value in data set [4] is on record as more than 80%. In data set [5], the viability at 24 h, 50 µM is 128%. Besides, in data set [6], the viability at 24 h, 10 µM was 124%. The inhibition at 1 µM in data set [7] amounted to 35.2%. For the same compound, the inhibition at 10 µM in data set [8] was found to be 29.5%. For the same compound, the concentration for half-maximal inhibition (IC50) at 24 h in data set [9] came out at 13.8 µM. Further, the viability at 24 h, 1 µM in [10] came out at 120%.

A word on the inhibition: it is the change of the read-out against control, counted positive when it falls. What is called IC50 is the point on the concentration scale where inhibition reaches its midpoint.

For the origin of these results see ChEMBL document CHEMBL3864155, “Dihydrostilbenes and diarylpropanes: Synthesis and in vitro pharmacological evaluation as potent nitric oxide production inhibition agents” (Bioorg Med Chem Lett, 2016).
